Source: article PMC8994094 (Molecular Diversity, 2022)
Several values for one entry are separate records, joined by “and”; a condition that tells them apart may be missing. Identical values can stand only once.

What was measured:
hCA II = hCA II (Homo sapiens, UniProt P00918); test: hCA II esterase activity/kinetic assay; format: biochemical; conditions: for hCA II Inhibition type: Lineweaver-Burk; for Selectivity index AAZ/hCA II: ratio of KI of acetazolamide to KI of compound; for Selectivity index hCAI/hCA II: ratio of KI values
hCA I = hCA I (Homo sapiens, UniProt P00915); test: hCA I esterase activity/kinetic assay; format: biochemical; conditions: for hCA I Inhibition type: Lineweaver-Burk; for Selectivity index AAZ/hCA I: ratio of KI of acetazolamide to KI of compound; for Selectivity index hCA II/hCA I: ratio of KI values
[1] = target: AChE from Electrophorus electricus (Electrophorus electricus, UniProt O42275); test: AChE activity/kinetic assay; format: biochemical; conditions: for AChE Inhibition type: Lineweaver-Burk; for Selectivity index THA/AChE: ratio of KI of tacrine to KI of compound
[2] = test system: cortex neuron cells and neuroblastoma SH-SY5Y cell line; test: MTT cytotoxicity test; format: cell-based; conditions: for cell viability at low concentrations: at 10 and 100 μM; for toxicity at effective concentrations on target enzymes: effective concentrations on AChE and hCAs

Sequence of hCA I (P00915 whole entry): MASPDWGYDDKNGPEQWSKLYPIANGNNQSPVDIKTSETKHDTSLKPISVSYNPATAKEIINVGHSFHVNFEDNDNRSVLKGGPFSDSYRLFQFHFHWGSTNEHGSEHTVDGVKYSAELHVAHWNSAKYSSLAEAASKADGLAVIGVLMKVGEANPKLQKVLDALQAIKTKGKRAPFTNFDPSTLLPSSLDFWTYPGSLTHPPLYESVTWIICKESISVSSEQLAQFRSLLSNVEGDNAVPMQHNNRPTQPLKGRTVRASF
Sequence of AChE from Electrophorus electricus (O42275 24-633): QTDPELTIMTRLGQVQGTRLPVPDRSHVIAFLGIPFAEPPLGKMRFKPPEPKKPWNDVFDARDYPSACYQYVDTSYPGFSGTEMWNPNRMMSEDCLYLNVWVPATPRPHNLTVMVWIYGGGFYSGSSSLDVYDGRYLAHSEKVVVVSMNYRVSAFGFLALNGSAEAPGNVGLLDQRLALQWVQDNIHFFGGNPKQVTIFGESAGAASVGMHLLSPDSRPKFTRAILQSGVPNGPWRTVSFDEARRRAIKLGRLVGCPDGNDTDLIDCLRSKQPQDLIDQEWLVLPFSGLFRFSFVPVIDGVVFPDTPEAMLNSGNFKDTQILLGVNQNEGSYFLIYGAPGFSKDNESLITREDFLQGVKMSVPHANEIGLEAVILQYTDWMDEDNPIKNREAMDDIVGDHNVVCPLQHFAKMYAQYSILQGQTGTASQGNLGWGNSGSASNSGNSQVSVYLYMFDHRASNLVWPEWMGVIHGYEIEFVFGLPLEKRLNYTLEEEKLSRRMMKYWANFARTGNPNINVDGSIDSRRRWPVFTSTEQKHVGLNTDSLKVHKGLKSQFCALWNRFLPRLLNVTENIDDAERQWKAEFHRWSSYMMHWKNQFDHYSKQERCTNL

SMILES	Ki (hCA II) [nM]	hCA II Inhibition type (hCA II)	Selectivity index AAZ/hCA II (hCA II)	Selectivity index hCAI/hCA II (hCA II)	Ki (hCA I) [nM]	hCA I Inhibition type (hCA I)	Selectivity index AAZ/hCA I (hCA I)	Selectivity index hCA II/hCA I (hCA I)	Ki [1] [nM]	AChE Inhibition type [1]	Selectivity index THA/AChE [1]	cell viability at low concentrations [2]	toxicity at effective concentrations on target enzymes [2]
CCCCC(=O)NS(=O)(=O)c1ccc(-c2nnc(SCC)o2)cc1 [6e, N-([4-(5-(ethylthio)-1,3,4-oxadiazol-2-yl)phenyl]sulfonyl)pentanamide]	37.24 ± 0.14	Competitive	2.64	1.27	47.15 ± 0.36	Competitive	9.31	0.79	41.2 ± 0.95	Noncompetitive	3.77	–	–
CCCCCCCCC(=O)NS(=O)(=O)c1ccc(-c2nnc(SCC)o2)cc1 [6i, N-([4-(5-(ethylthio)-1,3,4-oxadiazol-2-yl)phenyl]sulfonyl)nonanamide]	112.7 ± 0.36	Competitive	0.87	0.34	38.4 ± 0.46	Competitive	11.44	2.93	47.6 ± 1.75	Competitive	3.27	–	–
CCSc1nnc(-c2ccc(S(=O)(=O)NC(=O)c3ccccc3)cc2)o1 [6a, N-([4-(5-(ethylthio)-1,3,4-oxadiazol-2-yl)phenyl]sulfonyl)benzamide]	9.33 ± 0.13	Competitive	10.5 and 10.53	2.32	21.6 ± 0.25	Competitive	20.29	0.43	52.5 ± 1.27	Competitive	2.96	high cell viability	non-toxic
CCCCCCCCCCCC(=O)NS(=O)(=O)c1ccc(-c2nnc(SCC)o2)cc1 [6j, N-([4-(5-(ethylthio)-1,3,4-oxadiazol-2-yl)phenyl]sulfonyl)dodecanamide]	29.4 ± 0.13	Competitive	3.34	1.05	31 ± 0.41	Competitive	14.16	0.95	46.7 ± 1.64	Competitive	3.33	–	–
CCCC(=O)NS(=O)(=O)c1ccc(-c2nnc(SCC)o2)cc1 [6d, N-([4-(5-(ethylthio)-1,3,4-oxadiazol-2-yl)phenyl]sulfonyl)butyramide]	23.2 ± 0.26	Competitive	4.24	0.81	18.7 ± 0.21	Competitive	23.5 and 23.54	1.24	48.4 ± 1.75	Competitive	3.21	high cell viability	non-toxic
CCCCCCCC(=O)NS(=O)(=O)c1ccc(-c2nnc(SCC)o2)cc1 [6h, N-([4-(5-(ethylthio)-1,3,4-oxadiazol-2-yl)phenyl]sulfonyl)octanamide]	120.8 ± 0.34	Noncompetitive	0.81	0.29	34.6 ± 0.51	Competitive	12.69	3.49	23.1 ± 0.77	Competitive	6.7 and 6.72	high cell viability	non-toxic
CCSc1nnc(-c2ccc(S(=O)(=O)NC(=O)c3ccc(C)cc3)cc2)o1 [6b, N-([4-(5-(ethylthio)-1,3,4-oxadiazol-2-yl)phenyl]sulfonyl)-4-methylbenzamide]	17.8 ± 0.23	Competitive	5.51	3.34	59.62 ± 0.53	Noncompetitive	7.37	0.30	47 ± 1.71	Competitive	3.30	–	–
CCCCCCC(=O)NS(=O)(=O)c1ccc(-c2nnc(SCC)o2)cc1 [6g, N-([4-(5-(ethylthio)-1,3,4-oxadiazol-2-yl)phenyl]sulfonyl)heptanamide]	30.71 ± 0.09	Competitive	3.20	0.75	23 ± 0.29	Competitive	19.09	1.33	49.7 ± 2.13	Competitive	3.12	–	–
CCCCCC(=O)NS(=O)(=O)c1ccc(-c2nnc(SCC)o2)cc1 [6f, N-([4-(5-(ethylthio)-1,3,4-oxadiazol-2-yl)phenyl]sulfonyl)hexanamide]	29.19 ± 0.1	Competitive	3.37	1.13	33.1 ± 0.47	Competitive	13.27	0.88	39.3 ± 1.13	Competitive	3.95	–	–
